Test results from article PMC6345968, “Structural basis for species-selective targeting of Hsp90 in a pathogenic fungus” (Nature Communications, 2019).
Where “and” joins values, the source holds several entries; their conditions need not be identical. Equal values may be shown once. Read-outs that look alike come from different tables or passages of the source.

Key:
C. albicans Hsp90 NBD = biological target: T1, C. albicans Hsp90 NBD (Candida albicans, UniProt P46598); assay: biochemical; type: binding; conditions: 0.1 nM Cy3-GdA, C. albicans NBD-Hsp90 (10 nM), Experiments 1-3
T1 construct: C. albicans Hsp90 (E7-K218); made in house; host or cells: E. coli Rosetta2
T1 sequence (P46598 7-218): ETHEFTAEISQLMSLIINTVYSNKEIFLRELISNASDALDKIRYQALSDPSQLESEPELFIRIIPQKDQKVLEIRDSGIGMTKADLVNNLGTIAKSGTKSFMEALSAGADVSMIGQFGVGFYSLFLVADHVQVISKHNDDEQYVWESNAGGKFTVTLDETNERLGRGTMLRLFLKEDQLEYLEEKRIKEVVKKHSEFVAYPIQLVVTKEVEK

[1] = biological target: T2, Hsp90 in C. albicans (SC5314) lysate (Candida albicans, UniProt P46598); assay: biochemical; type: binding; conditions: SC5314 lysate
T2 construct: endogenous in cells; host or cells: C. albicans SC5314 whole-cell lysate
T2 sequence (P46598 whole entry): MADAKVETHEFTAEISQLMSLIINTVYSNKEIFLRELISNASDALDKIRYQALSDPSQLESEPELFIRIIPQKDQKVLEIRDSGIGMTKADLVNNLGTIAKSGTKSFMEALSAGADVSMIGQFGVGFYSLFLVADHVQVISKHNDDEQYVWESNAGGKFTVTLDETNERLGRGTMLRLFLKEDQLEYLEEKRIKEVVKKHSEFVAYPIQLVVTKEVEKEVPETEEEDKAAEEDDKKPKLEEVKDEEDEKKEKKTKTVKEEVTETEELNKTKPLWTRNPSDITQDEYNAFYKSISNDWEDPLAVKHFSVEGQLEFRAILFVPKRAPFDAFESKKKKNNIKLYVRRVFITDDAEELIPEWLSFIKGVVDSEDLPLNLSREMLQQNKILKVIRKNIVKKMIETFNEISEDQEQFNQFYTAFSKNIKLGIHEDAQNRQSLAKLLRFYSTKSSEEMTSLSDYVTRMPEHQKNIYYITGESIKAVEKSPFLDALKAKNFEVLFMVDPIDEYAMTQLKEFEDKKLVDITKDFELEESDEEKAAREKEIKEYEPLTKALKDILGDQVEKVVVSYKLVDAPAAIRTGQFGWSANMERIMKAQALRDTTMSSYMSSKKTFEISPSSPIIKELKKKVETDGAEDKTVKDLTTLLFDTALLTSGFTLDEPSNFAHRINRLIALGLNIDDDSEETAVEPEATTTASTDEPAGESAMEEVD

Hsp90 in 3T3 lysate = assay: FP competition in whole-cell lysate; type: binding, mouse; conditions: 3T3 lysate
Procedure: After vortexing, cell lysate was frozen at −80 °C for 2 h, followed by thawing on ice. The vortex-freeze-thaw step was repeated. […] Aliquots were thawed immediately prior to use.

human Hsp90 NBD = human Hsp90 NBD (Homo sapiens, UniProt P08238); conditions: Cmpd 0.002 uM; 0.1 nM Cy3-GdA; Human NBD-Hsp90 (10 nM); Experiments 1-3
Chain of human Hsp90 NBD (P08238 1-223): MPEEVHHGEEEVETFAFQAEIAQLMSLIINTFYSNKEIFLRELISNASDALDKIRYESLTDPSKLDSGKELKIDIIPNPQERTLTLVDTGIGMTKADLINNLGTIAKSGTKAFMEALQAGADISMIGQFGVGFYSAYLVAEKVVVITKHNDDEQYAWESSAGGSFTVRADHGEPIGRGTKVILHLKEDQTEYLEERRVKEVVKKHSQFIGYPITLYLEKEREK

With CCNC(=O)c1noc(-c2cc(C(C)C)c(O)cc2O)c1-c1ccc(CN2CCOCC2)cc1 [AUY922, reference compound] the “FP signal (raw)” value (C. albicans Hsp90 NBD; Cmpd 0.002 uM) was 157 and 150 and 92, the remaining activity at 0.002 µM (C. albicans Hsp90 NBD; Cmpd 0.002 uM, read-out: FP signal as fraction of no-compound (0 uM) control) was 92.9% and the “FP signal (raw)” value (C. albicans Hsp90 NBD; Cmpd 0.004 uM) was 138 and 125 and 79. For the same molecule, the remaining activity at 0.004 µM (C. albicans Hsp90 NBD; Cmpd 0.004 uM, read-out: FP signal as fraction of no-compound (0 uM) control) was 72.7%, the remaining activity at 0.008 µM (C. albicans Hsp90 NBD; Cmpd 0.008 uM, read-out: FP signal as fraction of no-compound (0 uM) control) was 47.6% and the remaining activity at 0.016 µM (C. albicans Hsp90 NBD; Cmpd 0.016 uM, read-out: FP signal as fraction of no-compound (0 uM) control) was 20.6%. The “FP signal (raw)” value (C. albicans Hsp90 NBD; Cmpd 0.063 uM) was 20 and 22 and 14, the remaining activity at 0.063 µM (C. albicans Hsp90 NBD; Cmpd 0.063 uM, read-out: FP signal as fraction of no-compound (0 uM) control) was 14.1% and the remaining activity at 0.25 µM (C. albicans Hsp90 NBD; Cmpd 0.25 uM, read-out: FP signal as fraction of no-compound (0 uM) control) was 10.6%. The remaining activity at 0.5 µM (C. albicans Hsp90 NBD; Cmpd 0.5 uM, read-out: FP signal as fraction of no-compound (0 uM) control) was 8.82%, the remaining activity at 1 µM (C. albicans Hsp90 NBD; Cmpd 1 uM, read-out: FP signal as fraction of no-compound (0 uM) control) was 9.88% and the remaining activity at 2 µM (C. albicans Hsp90 NBD; Cmpd 2 uM, read-out: FP signal as fraction of no-compound (0 uM) control) was 13.5%. For the same molecule, the remaining activity at […] (C. albicans Hsp90 NBD; Cmpd […], read-out: FP signal as fraction of no-compound (0 uM) control) was 17.1%, the remaining activity at […] (C. albicans Hsp90 NBD; read-out: FP signal as fraction of no-compound (0 uM) control, Cmpd […]) was 9.41% and the “Rel. to GdA” value ([1]; EC50 relative to GdA) was 0.2794. For the same molecule, the “FP signal (raw)” value ([1]; 0.457 nM) was 200, the “FP signal (raw)” value ([1]; 1.372 nM) was 186 and the “FP signal (raw)” value ([1]; 0.002 uM) was 174. The remaining activity at 0.002 µM ([1]; 0.002 uM, read-out: FP signal, fraction of control) was 93.5%, the “FP signal (raw)” value ([1]; 0.004 uM) was 157 and the remaining activity at 0.004 µM ([1]; 0.004 uM, read-out: FP signal, fraction of control) was 84.4%. For the same molecule, the “FP signal (raw)” value ([1]; 4.115 nM) was 138, the “FP signal (raw)” value ([1]; 0.008 uM) was 93 and the remaining activity at 0.008 µM ([1]; 0.008 uM, read-out: FP signal, fraction of control) was 50%. The “FP signal (raw)” value ([1]; 0.016 uM) was 21, the remaining activity at 0.016 µM ([1]; 0.016 uM, read-out: FP signal, fraction of control) was 11.3% and the remaining activity at […] ([1]; 0.031 uM, read-out: FP signal, fraction of control) was 3.76%. The “FP signal (raw)” value ([1]; 37.037 nM) was 35, the “FP signal (raw)” value ([1]; 0.063 uM) was 1 and the remaining activity at 0.063 µM ([1]; 0.063 uM, read-out: FP signal, fraction of control) was 0.538%. The “FP signal (raw)” value ([1]; 111.111 nM) was 31, the “FP signal (raw)” value ([1]; 0.25 uM) was -2 and the remaining activity at 0.25 µM ([1]; 0.25 uM, read-out: FP signal, fraction of control) was -1.08%. The “FP signal (raw)” value ([1]; 333.333 nM) was 28, the “FP signal (raw)” value ([1]; 0.5 uM) was 3 and the remaining activity at 0.5 µM ([1]; 0.5 uM, read-out: FP signal, fraction of control) was 1.61%. The “FP signal (raw)” value ([1]; 1 uM) was -2, the remaining activity at 1 µM ([1]; 1 uM, read-out: FP signal, fraction of control) was -1.08% and the “FP signal (raw)” value ([1]; 1000 nM) was 33. For the same molecule, the “FP signal (raw)” value ([1]; 2 uM) was 2, the remaining activity at 2 µM ([1]; 2 uM, read-out: FP signal, fraction of control) was 1.08% and the “FP signal (raw)” value ([1]; 3000 nM) was 31. The “FP signal (raw)” value (Hsp90 in 3T3 lysate; 0.002 uM) was 250, the “FP signal, fraction of control” value (Hsp90 in 3T3 lysate; 0.002 uM) was 0.9881 and the “FP signal (raw)” value (Hsp90 in 3T3 lysate; 0.004 uM) was 248. For the same molecule, the “FP signal, fraction of control” value (Hsp90 in 3T3 lysate; 0.004 uM) was 0.9802, the “FP signal (raw)” value (Hsp90 in 3T3 lysate; 0.008 uM) was 244 and the “FP signal, fraction of control” value (Hsp90 in 3T3 lysate; 0.008 uM) was 0.9644. The “FP signal (raw)” value (Hsp90 in 3T3 lysate; 0.016 uM) was 209, the “FP signal, fraction of control” value (Hsp90 in 3T3 lysate; 0.016 uM) was 0.8261 and the “FP signal (raw)” value (Hsp90 in 3T3 lysate; 0.063 uM) was 39. For the same molecule, the “FP signal, fraction of control” value (Hsp90 in 3T3 lysate; 0.063 uM) was 0.1542, the “FP signal (raw)” value (Hsp90 in 3T3 lysate; 0.25 uM) was 23 and the “FP signal, fraction of control” value (Hsp90 in 3T3 lysate; 0.25 uM) was 0.09091. The “FP signal (raw)” value (Hsp90 in 3T3 lysate; 0.5 uM) was 22, the “FP signal, fraction of control” value (Hsp90 in 3T3 lysate; 0.5 uM) was 0.08696 and the “FP signal (raw)” value (Hsp90 in 3T3 lysate; 1 uM) was 23. The “FP signal, fraction of control” value (Hsp90 in 3T3 lysate; 1 uM) was 0.09091, the “FP signal (raw)” value (Hsp90 in 3T3 lysate; 2 uM) was 22 and the “FP signal, fraction of control” value (Hsp90 in 3T3 lysate; 2 uM) was 0.08696. The EC50 (Hsp90 in 3T3 lysate; fit against log conc uM) was 0.0235 µM, the “FP signal (raw)” value (human Hsp90 NBD) was 117 and 95 and the “FP signal as fraction of no-compound (0 uM) control” value (human Hsp90 NBD) was 0.9406 and 0.8355.
